Source: US20260297083A1, “SUBSTITUTED ACETYLENE COMPOUND DERIVATIVES AND THEIR PHARMACEUTICAL USE” (AVELOS THERAPEUTICS INC., priority 2023, published 2026)

These compounds were tested on DLD-1 BRCA2(−/−) Cell (assay: Cell viability assay (Resazurin) in DLD1-BRCA2 cells). Details: Homo sapiens, DLD-1, 336 h, 14 days, 1,500 cells/well, final DMSO 1%.
Type: cell-based
Procedure: DLD1-BRCA2 KG (Horizon Discovery, Cat #HD 105-007) cells and DLD1-parental cells were maintained in culture media (RPMI-1640 including 2 mM L-glutamin and 25 mM sodium bicarbonate, supplemented with 10% FBS), at 37° C. in a humidified atmosphere with 5% CO2. Cells were seeded at the final concentration of 1,500 cells/well (DLD1-BRCA2 KG) and 600 cells/well (DLD1-parental) in a 96-well plate. Four hours later, test compounds were added (the final concentration of DMSO was 1%) to the cells and media were replaced every 3-4 days for 14 days. To measure viability, cells were incubated in culture media supplemented with 0.1 mg/ml of Resazurin (Merck, Cat #R7017) for 4 hours. The fluorescence was measured at Ex/Em=560 nm/590 nm using EnSight multimode plate reader (Perkin Elmer). Data analysis and IC50 calculation was done using GraphPad Prism (Version 10.0.2).

Row | IC50 | Compound
1 | < 1000 nM | Cc1cc(C(F)(F)F)cc(N2[C@H](C(=O)N(CC#Cc3cnc(S(N)(=O)=O)cn3)c3ccc(F)c(C)c3)CCS2(=O)=O)n1 [Example 65, (S)-N-(4-fluoro-3-methylphenyl)-2-(6-methyl-4-(trifluoromethyl)pyridin-2-yl)-N-(3-(5-sulfamoylpyrazin-2-yl)prop-2-yn-1-yl)isothiazolidine-3-carboxamide 1,1-dioxide]

What follows are compounds tested against T1, Polθ polymerase domain (amino acids 1792-2590) (Homo sapiens, UniProt O75417) (assay: Picogreen assay of Polθ polymerase activity). Details: 12-point concentration response, 90 minutes incubation at room temperature, 8 nM Polθ in 2×polymerase mixture, read-out: PolQ IC50.
T1 construct: 10×Histidine-SUMO (N, cleaved yes); made in house; host or cells: E. coli
T1 sequence (O75417 1792-2590): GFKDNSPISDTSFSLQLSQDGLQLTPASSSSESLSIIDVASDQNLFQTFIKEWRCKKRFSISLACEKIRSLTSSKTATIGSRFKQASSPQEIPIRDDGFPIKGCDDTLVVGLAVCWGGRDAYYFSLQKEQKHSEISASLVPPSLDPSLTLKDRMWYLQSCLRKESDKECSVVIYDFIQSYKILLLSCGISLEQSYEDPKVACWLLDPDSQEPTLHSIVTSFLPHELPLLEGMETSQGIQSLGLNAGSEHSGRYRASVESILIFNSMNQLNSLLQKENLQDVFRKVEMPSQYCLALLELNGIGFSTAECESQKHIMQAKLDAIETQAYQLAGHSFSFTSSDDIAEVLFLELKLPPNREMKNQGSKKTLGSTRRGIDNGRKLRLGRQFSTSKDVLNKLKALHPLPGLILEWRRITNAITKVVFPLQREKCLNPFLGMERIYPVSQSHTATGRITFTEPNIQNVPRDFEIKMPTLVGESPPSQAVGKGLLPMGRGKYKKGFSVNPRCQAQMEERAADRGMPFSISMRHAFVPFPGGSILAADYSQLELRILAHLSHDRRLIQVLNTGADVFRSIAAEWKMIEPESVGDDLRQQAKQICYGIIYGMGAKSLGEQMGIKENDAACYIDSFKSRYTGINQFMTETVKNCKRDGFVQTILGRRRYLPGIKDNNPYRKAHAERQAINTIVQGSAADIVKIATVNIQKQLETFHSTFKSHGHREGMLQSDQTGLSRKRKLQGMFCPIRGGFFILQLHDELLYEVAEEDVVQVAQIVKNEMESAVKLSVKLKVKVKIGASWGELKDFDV
Type: biochemical
Outline: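 E. coli-expressed polymerase domain with His-SUMO tag removed; 2× enzyme mix (8 nM) combined with 2× substrate mix (100 nM annealed primer/template DNA, 40 uM dNTPs). Buffer 25 mM Tris-HCl pH 7.5, 12.5 mM NaCl, 0.5 mM MgCl2, 1 mM DTT. Reaction 90 min at room temperature, then EDTA/Picogreen stain read at 485/520 nm; 12-point IC50.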

Row | IC50 | Compound
2 | 1 to 50 nM | Cc1cc(C(F)(F)F)cc(N2[C@H](C(=O)N(CC#Cc3ccc(N4CCOCC4)nc3)c3ccc(F)c(C)c3)CCS2(=O)=O)n1 [compound 85]
3 | 1 to 50 nM | Cc1cc(C(F)(F)F)cc(N2[C@H](C(=O)N(CC#Cc3cccc(C(N)=O)n3)c3ccc(F)c(C)c3)CCS2(=O)=O)n1 [compound 120]
4 | 1 to 50 nM | Cc1cc(C(F)(F)F)cc(N2C(=O)CC[C@H]2C(=O)N(CC#Cc2ccc(F)cn2)c2ccc(F)c(C)c2)n1 [compound 8]
5 | 1 to 50 nM | Cc1cc(C(F)(F)F)cc(N2[C@H](C(=O)N(CC#Cc3cncc(C(=O)N4CC5CCC(C4)N5)n3)c3ccc(F)c(C)c3)CCS2(=O)=O)n1 [compound 73]
6 | 1 to 50 nM | CCN1CCN(c2ccc(C#CCN(C(=O)[C@@H]3CCS(=O)(=O)N3c3cc(C(F)(F)F)cc(C)n3)c3ccc(F)c(C)c3)nn2)CC1 [compound 24]
7 | 1 to 50 nM | CCN1CCN(c2cnc(C#CCN(C(=O)[C@@H]3CCS(=O)(=O)N3c3cc(C(F)(F)F)cc(C)n3)c3ccc(F)c(C)c3)cn2)CC1 [compound 50]
8 | 1 to 50 nM | Cc1cc(C(F)(F)F)cc(N2[C@H](C(=O)N(CC#Cc3nccnc3C(N)=O)c3ccc(F)c(C)c3)CCS2(=O)=O)n1 [compound 64]
9 | 1 to 50 nM | Cc1cc(C(F)(F)F)cc(N2[C@H](C(=O)N(CC#Cc3cc(C)c(N)c(C)n3)c3ccc(F)c(C)c3)CCS2(=O)=O)n1 [compound 91]
10 | 1 to 50 nM | Cc1cc(C(F)(F)F)cc(N2[C@H](C(=O)N(CC#Cc3cnc(N4C5CCC4COC5)cn3)c3ccc(F)c(C)c3)CCS2(=O)=O)n1 [compound 49]
11 | 1 to 50 nM | Cc1cc(C(F)(F)F)cc(N2[C@H](C(=O)N(CC#Cc3cnc(C(N)=O)c(C)n3)c3ccc(F)c(C)c3)CCS2(=O)=O)n1 [compound 62]
12 | 1 to 50 nM | CCN1CCN(c2cnc(C#CCN(C(=O)[C@@H]3CCC(=O)N3c3cc(C(F)(F)F)cc(C)n3)c3ccc(F)c(C)c3)cn2)CC1 [compound 11]
13 | 1 to 50 nM | Cc1cc(C(F)(F)F)cc(N2C(=O)CC[C@H]2C(=O)N(CC#CCN2CCN(c3cnccn3)CC2)c2ccc(F)c(C)c2F)n1 [compound 15]
14 | 1 to 50 nM | C=CC(=O)Nc1cc(C#CCN(C(=O)[C@@H]2CCS(=O)(=O)N2c2cc(C(F)(F)F)cc(C)n2)c2ccc(F)c(C)c2)ccn1 [compound 139, (S)-N-(3-(2-acrylamidopyridin-4-yl)prop-2-yn-1-yl)-N-(4-fluoro-3-methylphenyl)-2-(6-methyl-4-(trifluoromethyl)pyridin-2-yl)isothiazolidine-3-carboxamide 1,1-dioxide]

The remaining lines, values behind:

Row | Compound | IC50
15 | Cc1cc(C(F)(F)F)cc(N2[C@H](C(=O)N(CC#Cc3ccc(Cc4cccc5c(=O)[nH]cnc45)nc3)c3ccc(F)c(C)c3)CCS2(=O)=O)n1 [compound 135] | 1 to 50 nM
16 | Cc1cc(C(F)(F)F)cc(N2[C@H](C(=O)N(CC#Cc3cnc(-c4c[nH]nn4)cn3)c3ccc(F)c(C)c3)CCS2(=O)=O)n1 [compound 56] | 1 to 50 nM
17 | C=CC(=O)Nc1ccnc(C#CCN(C(=O)[C@@H]2CCS(=O)(=O)N2c2cc(C(F)(F)F)cc(C)n2)c2ccc(F)c(C)c2)c1 [compound 138, (S)-N-(3-(4-acrylamidopyridin-2-yl)prop-2-yn-1-yl)-N-(4-fluoro-3-methylphenyl)-2-(6-methyl-4-(trifluoromethyl)pyridin-2-yl)isothiazolidine-3-carboxamide 1,1-dioxide] | 1 to 50 nM
18 | Cc1cc(C(F)(F)F)cc(N2C(=O)CC[C@H]2C(=O)N(CC#Cc2cnc(N)cn2)c2ccc(F)c(C)c2)n1 [compound 6] | 1 to 50 nM
19 | Cc1cc(C(F)(F)F)cc(N2C(=O)CC[C@H]2C(=O)N(CC#Cc2ccc(N)nn2)c2ccc(F)c(C)c2)n1 [compound 5] | 1 to 50 nM
20 | Cc1cc(C(F)(F)F)cc(N2[C@H](C(=O)N(CC#Cc3cnc(N4C[C@H](C)N(C(C)C)[C@@H](C)C4)cn3)c3ccc(F)c(C)c3)CCS2(=O)=O)n1 [compound 53] | 1 to 50 nM
21 | Cc1cc(C(F)(F)F)cc(N2[C@H](C(=O)N(CC#Cc3cnc(C#N)cn3)c3ccc(F)c(C)c3)CCS2(=O)=O)n1 [compound 59] | > 101 nM
22 | Cc1cc(C(F)(F)F)cc(N2[C@H](C(=O)N(CC#Cc3cnc(-c4ncon4)cn3)c3ccc(F)c(C)c3)CCS2(=O)=O)n1 [compound 58] | > 101 nM
23 | Cc1cc(C(F)(F)F)cc(N2[C@H](C(=O)N(CC#Cc3ccc(F)c(C(C)C)n3)c3ccc(F)c(C)c3)CCS2(=O)=O)n1 [compound 94] | 51 to 100 nM
24 | Cc1cc(C(F)(F)F)cc(N2[C@H](C(=O)N(CC#Cc3ccc(C(N)=O)nc3)c3ccc(F)c(C)c3)CC3(CC3)S2(=O)=O)n1 [compound 145, (S)—N-(3-(6-carbamoylpyridin-3-yl)prop-2-yn-1-yl)-N-(4-fluoro-3-methylphenyl)-5-(6-methyl-4-(trifluoromethyl)pyridin-2-yl)-4-thia-5-azaspiro [2,4]heptane-6-carboxamide 4,4-dioxide] | 1 to 50 nM
25 | Cc1cc(C(F)(F)F)cc(N2[C@H](C(=O)N(CC#Cc3ccc(C(=O)N(C)C)nc3)c3ccc(F)c(C)c3)CCS2(=O)=O)n1 [compound 111] | 1 to 50 nM
26 | Cc1cc(C(F)(F)F)cc(N2[C@H](C(=O)N(CC#Cc3cnc(N4CC5(COC5)C4)cn3)c3ccc(F)c(C)c3)CCS2(=O)=O)n1 [compound 38] | 1 to 50 nM
27 | Cc1cc(C(F)(F)F)cc(N2[C@H](C(=O)N(CC#Cc3ccc(OC(F)F)nn3)c3ccc(F)c(C)c3)CCS2(=O)=O)n1 [compound 28] | 1 to 50 nM
28 | Cc1cc(C(F)(F)F)cc(N2[C@H](C(=O)N(CC#Cc3ncc(C(=O)N4CCOCC4)cn3)c3ccc(F)c(C)c3)CCS2(=O)=O)n1 [compound 82] | 51 to 100 nM
29 | C=CC(=O)Nc1cncc(C#CCN(C(=O)[C@@H]2CCS(=O)(=O)N2c2cc(C(F)(F)F)cc(C)n2)c2ccc(F)c(C)c2)c1 [compound 127] | 1 to 50 nM
30 | Cc1cc(C(F)(F)F)cc(N2[C@H](C(=O)N(CC#Cc3cnc(N4CC5CCC(C4)O5)cn3)c3ccc(F)c(C)c3)CCS2(=O)=O)n1 [compound 48] | 1 to 50 nM
31 | Cc1cc(C(F)(F)F)cc(N2[C@H](C(=O)N(CC#Cc3ccc(Cc4ccc(=O)[nH]n4)nc3)c3ccc(F)c(C)c3)CCS2(=O)=O)n1 [compound 133] | 1 to 50 nM
32 | Cc1cc(C(F)(F)F)cc(N2[C@H](C(=O)N(CC#Cc3cnc(N4CCOCC4)nc3)c3ccc(F)c(C)c3)CCS2(=O)=O)n1 [compound 77] | 1 to 50 nM
33 | Cc1cc(C(F)(F)F)cc(N2[C@H](C(=O)N(CC#Cc3ncnc(N4CCOCC4)n3)c3ccc(F)c(C)c3)CCS2(=O)=O)n1 [compound 103] | > 101 nM
34 | Cc1cc(C(F)(F)F)cc(N2[C@H](C(=O)N(CC#Cc3ccc(-c4ncon4)nc3)c3ccc(F)c(C)c3)CCS2(=O)=O)n1 [compound 116] | 1 to 50 nM
35 | Cc1cc(C(F)(F)F)cc(N2[C@H](C(=O)N(CC#Cc3cnc(NC(C)C)cn3)c3ccc(F)c(C)c3)CCS2(=O)=O)n1 [compound 36] | 1 to 50 nM
36 | Cc1cc(C(F)(F)F)cc(N2[C@H](C(=O)N(CC#Cc3cncn3C)c3ccc(F)c(C)c3)CCS2(=O)=O)n1 [compound 102] | 1 to 50 nM
37 | CCN(CC)c1ccc(C#CCN(C(=O)[C@@H]2CCS(=O)(=O)N2c2cc(C(F)(F)F)cc(C)n2)c2ccc(F)c(C)c2)nn1 [compound 25] | 1 to 50 nM
